The values below come from patent US8202866B2, “Ortho-aminoanilides for the treatment of cancer” (Hoffmann-La Roche Inc., priority 2008, dated 2012).

SMILES strings stand for the structures.

The test system of assay [1] is SMMC-7721 liver cancer cells. Put plainly: Antiproliferative activity, in vitro growth inhibition assay (MTS/WST), SMMC-7721. The format is cell-based. Conditions: Homo sapiens, 72 hours; for IC90: concentration required for 90% growth inhibition, read-out: GI90 (micromolar) SMMC-7721; for GI50: read-out: GI50 (micromolar) SMMC-7721. How it is done: The novel compounds of the present invention were tested for their ability to inhibit growth of various cancer cell lines using in vitro growth inhibition assays described below.
Cells were seeded in 96-well culture plates (200 microliters/well at different seeding concentrations depending on cell type) and incubated overnight at 37 degrees Celsius in 5% CO2. After adding compound dilutions to the cells (DMSO concentration kept below 0.5%), the cells were incubated at 37 degrees Celsius in 5% CO2 for 72 hours. The effects on proliferation were determined by addition of MTS reagent (Promega) according to the manufacturer's instruction, followed by incubation for 2 hours at 37 degrees Celsius in 5% CO2, and finally recording the absorbance at 490 nm using an ELISA plate reader.
Similar to MTS assay except that the developer is the CCK-8 reagent (Dojindo) and the plate reader is set to 450 nm absorbance.
GI50 and GI90 values against SMMC-7721 liver cancer cells for specific representative compounds can be found in Table 7.

In assay [2] the test system is p21 promoter-luciferase construct in HeLa cells. Put plainly: p21 reporter gene induction assay, HeLa cells transfected with p21 promoter-luciferase construct. The format is cell-based. Conditions: compound at 3 micromolar; 15 hours incubation; relative to SNDX-275 (=100%). How it is done: The novel compounds of the present invention were tested for their ability to induce p21 gene expression using a reporter gene assay involving HeLa cells transfected with a p21 promoter-luciferase construct. The p21 promoter contained the Sp1/Sp3 binding site for HDAC but not the upstream p53 binding site. Briefly, the day before transfection, HeLa cells were seeded at 11,000 cells/well in a 96-well culture plate and incubated at 37 degrees Celsius in 5% CO2 overnight. For transfection, the medium was removed and replaced with 100 microliters/well transfection media previously prepared as follows: 5 microliters serum-free DMEM, 0.15 microliters Fugene 6 reagent, 40 ng p21-luc, 10 ng GFP were mixed gently and incubated at room temperature for 30 minutes; then 98 microliters DMEM (with 10% FBS, 1% penicillin and streptomycin) was added to the DNA:Fugene 6 reagent complex and mixed gently. After incubating the cells for 24 hours at 37 degrees Celsius in 5% CO2, fresh media and test compounds were added to the wells and the cells further incubated for 15 hours at 37 degrees Celsius in 5% CO2. Cells were lysed by adding 80 microliters/well of a cell culture lysis reagent (Promega). 50 microliters of each lysate was taken for GFP detection using an excitation wavelength of 486 nm and detection at 527 nm. 100 microliters Luciferase assay reagent (Promega) was then added to every 20 microliters cell lysate for luminometer detection. […] Induction activity for specific representative compounds can be found in Table 7.
Background: A reporter such as luciferase makes a cellular process visible.

The GI50 is the concentration that inhibits growth by half. `Nc1ccccc1NC(=O)/C=C/c1ccc(C(CCN2C[C@@H]3C[C@H]2CO3)C(=O)Nc2ccc(Br)cc2)cc1` (stereo partly drawn) [Example 6, 2-{4-[(E)-2-(2-Amino-phenylcarbamoyl)-vinyl]-phenyl}-N-(4-bromo-phenyl)-4-(1S,4S)-2-oxa-5-aza-bicyclo[2.2.1]hept-5-yl-butyramide]: in assay [1], the IC90 stood at 2.7 µM and the GI50 came out at 0.8 µM. Moreover, the “p21 (RP3): relative induction potency compared with SNDX-275” value (“p21 (RP3): relative induction potency” for short) in assay [2] is given as 212%.

With `Nc1ccccc1NC(=O)/C=C/c1ccc(C(CCN2CCOCC2)C(=O)Nc2ccc(Br)cc2)cc1` (stereo not drawn) [Example 6-2, 2-{4-[(E)-2-(2-Amino-phenylcarbamoyl)-vinyl]-phenyl}-N-(4-bromo-phenyl)-4-morpholin-4-yl-butyramide], in assay [1], the IC90 worked out at 3.1 µM and the GI50 is 1 µM. In assay [2], the “p21 (RP3): relative induction potency” value is recorded as 233%.

With `Nc1ccccc1NC(=O)/C=C/c1ccc(C(CCCN2CCOCC2)C(=O)Nc2ccc(Br)cc2)cc1` (stereo not drawn) [Example 9, 2-{4-[(E)-2-(2-Amino-phenylcarbamoyl)-vinyl]phenyl}-5-morpholin-4-yl-pentanoic acid (4-bromo-phenyl)-amide], in assay [1], the IC90 is 2.9 µM and the GI50 amounted to 1.3 µM. Also, the “p21 (RP3): relative induction potency” value in assay [2] was determined as 253%.

`Nc1ccccc1NC(=O)/C=C/c1ccc(C(CCCN2C[C@@H]3C[C@H]2CO3)C(=O)Nc2ccc(Br)cc2)cc1` (stereo partly drawn) [Example 9-2, 2-{4-[(E)-2-(2-Amino-phenylcarbamoyl)-vinyl]-phenyl}-5-(1S,4S)-2-oxa-5-aza-bicyclo[2.2.1]hept-5-yl-pentanoic acid (4-bromo-phenyl)-amide]: in assay [1], the IC90 is 1.5 µM and the GI50 was found to be 0.7 µM. For the same compound, the “p21 (RP3): relative induction potency” value in assay [2] stood at 74%.

On to `Nc1ccccc1NC(=O)/C=C/c1ccc(C(CCCN2CCCCC2)C(=O)Nc2ccc(Br)cc2)cc1` (stereo not drawn) [Example 9-3, 2-{4-[(E)-2-(2-Amino-phenylcarbamoyl)-vinyl]-phenyl}-5-piperidin-1-yl-pentanoic acid (4-bromo-phenyl)-amide], for which, in assay [1], the IC90 was determined as 2.1 µM and the GI50 amounted to 0.8 µM. Further, in assay [2], the “p21 (RP3): relative induction potency” value is 305%.

As for `CC(C)c1ccc(NC(=O)C(CCCN2C[C@@H]3C[C@H]2CO3)c2ccc(/C=C/C(=O)Nc3ccccc3N)cc2)cc1` (stereo partly drawn) [Example 9-4, 2-{4-[(E)-2-(2-Amino-phenylcarbamoyl)-vinyl]-phenyl}-5-(1S,4S)-2-oxa-5-aza-bicyclo[2.2.1]hept-5-yl-pentanoic acid (4-isopropyl-phenyl)-amide], in assay [1], the IC90 is 4.9 µM and the GI50 was 1.4 µM. Also, in assay [2], the “p21 (RP3): relative induction potency” value is 155%.

Consider `Nc1ccccc1NC(=O)/C=C/c1ccc(C(CCCN2CCCC(O)C2)C(=O)Nc2ccc(Br)cc2)cc1` (stereo not drawn) [Example 9-5, 2-{4-[(E)-2-(2-Amino-phenylcarbamoyl)-vinyl]-phenyl}-5-(3-hydroxy-piperidin-1-yl)-pentanoic acid (4-bromo-phenyl)-amide], for which, in assay [1], the IC90 came out at 3.2 µM and the GI50 was 1.1 µM. Besides, in assay [2], the “p21 (RP3): relative induction potency” value was determined as 127%.

As to `CN1CCCC1CCC(C(=O)Nc1ccc(Br)cc1)c1ccc(/C=C/C(=O)Nc2ccccc2N)cc1` (stereo not drawn) [Example 25, 2-{4-[(E)-2-(2-Amino-phenylcarbamoyl)-vinyl]-phenyl}-N-(4-bromo-phenyl)-4-(1-methyl-pyrrolidin-2-yl)-butyramide], in assay [1], the IC90 came out at 2.5 µM and the GI50 was 0.8 µM. The “p21 (RP3): relative induction potency” value in assay [2] is listed as 199%.

For the compound `CCN(CC)C1CCN(CC(C(=O)Nc2ccc(Cl)cc2)c2ccc(/C=C/C(=O)Nc3ccccc3N)cc2)C1` (stereo not drawn) [Example 31, (E)-N-(2-Amino-phenyl)-3-{4-[1-(4-chloro-phenylcarbamoyl)-2-(3-diethylamino-pyrrolidin-1-yl)-ethyl]phenyl}-acrylamide], in assay [1], the IC90 amounted to 3.3 µM and the GI50 stood at 0.9 µM. The “p21 (RP3): relative induction potency” value in assay [2] is 243%.

Regarding `Nc1ccccc1NC(=O)c1ccc(CNC(=O)OCc2cccnc2)cc1` [SNDX-275, reference compound], in assay [1], the IC90 is 10.5 µM and the GI50 was 3.5 µM. In assay [2], the “p21 (RP3): relative induction potency” value turned out to be 100%.
